Source: patent US20200352907A1, “Use Of Carbamate Compound For Preventing, Alleviating Or Treating Absence Seizure Or Epilepsy Showing Absence Seizure” (SK BIOPHARMACEUTICALS CO., LTD., priority 2017, published 2020)

Assays:
GAERS model rats = settings: known from literature; cited from earlier work
[1] = test system: GAERS (Genetic Absence Epilepsy Rat from Strasbourg) model; experiment: Efficacy test in GAERS model rats: EEG analysis of spike-and-wave discharges (SWD); assay type: in vivo; settings: for cumulated duration of SWD / number of occurrences of SWD: 20-minute intervals 10-90 min after administration, 2-way ANOVA vs vehicle; for cumulated duration of SWD, total effect for 1 hour after administration / number of occurrences of SWD, total effect for 1 hour after administration: 1-way ANOVA vs vehicle, effect similar to valproate 150 and 200 mg/kg
Protocol: Twelve 5-week-old GAERS model rats were purchased from the Grenoble Institute of Neurosciences, France. After purchase, the rats were bred at a temperature of 21±2° C. under conditions of free access to food and water, and controlled light (illuminated from 8 am to 8 pm), and the condition was maintained for 2 months prior to surgery.
EEG electrodes were implanted into twelve 3-month-old GAERS rats. Stereotaxic implantation was performed under anesthesia with isoflurane (2% concentration in oxygen). The rats were fixed to the stereotaxic frame and surgery was performed while observing body temperature. An ophthalmic gel was used to prevent drying of the cornea. After cutting the hair of the incision site, it was disinfected with povidone, and after incision, four holes were drilled using a drill at the frontal cortical and parietal cortical positions of both hemispheres of the open skull. Monopolar electrodes were placed in these holes and then connected to a female connector fixed to the skull for EEG recording. The incision site was then sutured. After surgery, buprenorphine was injected subcutaneously at a dose of 0.1 mg/kg, and the anesthetic was removed and observed until recovery of consciousness. After that, the rats were kept in a cage for recovery for a week.
One week after the electrode implantation, preliminary EEG measurements of 1 hour were performed on all 12 animals, and 10 animals showing enough signal-to-noise suitable for detecting generation of SWD were selected.
Test compound and positive control drug were prepared immediately before administration. Carbamic acid (R)-1-(2-chlorophenyl)-2-tetrazol-2-yl-ethyl ester prepared in the above preparation example was used as the test compound which was dissolved in 30% (volume/volume) PEG300 (81164-14, Sigma-Aldrich), and the positive control valproate (P4543, Sigma-Aldrich) was dissolved in 0.9% sterile saline (Cooper, France). Both drugs were administered intraperitoneally at a dose of 5 ml/kg. 30% PEG300 was used for vehicle administration as the negative control.
The test was done in a cross-over method, with a minimum interval of 71 hours between each administration for wash-out of the drug. In the first stage test, the following conditions were administered. • Vehicle (30% PEG300) • Valproate 200 mg/kg • Test compound 5 mg/kg • Test compound 10 mg/kg • Test compound 20 mg/kg
In the second stage test, the following conditions were administered. • Valproate 150 mg/kg • Test compound 30 mg/kg
For EEG recording, 10 GAERS rats were placed in a recording chamber and then connected to a wire for EEG recording. After an hour of habituation process, EEG recordings of free-moving animals were performed. As a baseline phase, 20 minutes of recording were performed before drug administration, and 90 minutes of recording were performed after drug administration, using SystemPlus Evolution (Micromed). During the recording, the animals were kept in a quiet wakefulness state.
The generated SWD was analyzed using the recorded EEG data, and all data analysis was performed by blind method. SWD was analyzed for the 20-minute baseline phase and for a total of 80 minutes period from 10 to 90 minutes after drug administration. The 80 minutes were analyzed by dividing them into 20-minute intervals, and the number of occurrences of SWD and the cumulated SWD duration (the cumulated duration of SWD) were analyzed.
Results were expressed as mean value ±standard error, and prism (graphpad) was used for statistical analysis. 2-way ANOVA was used for the number of occurrences of SWD and the cumulated duration of SWD over time. Bonferroni's paired comparison method was used for comparison with the baseline period, comparison with the vehicle-administered negative control and comparison with the valproate-administered positive control. […]

[2] = compared with valproate positive control

| SMILES | SWD in the GAERS model rats (GAERS model rats) | effect duration (cumulated duration of SWD) [1, 2] | effect duration (number of occurrences of SWD) [1, 2] | cumulated duration of SWD ([1]; test compound 10 mg/kg i.p.) | number of occurrences of SWD ([1]; test compound 10 mg/kg i.p.) | cumulated duration of SWD, total effect for 1 hour after administration ([1]; test compound 20 mg/kg i.p.) | number of occurrences of SWD, total effect for 1 hour after administration ([1]; test compound 20 mg/kg i.p.) | cumulated duration of SWD ([1]; test compound 20 mg/kg i.p.) | number of occurrences of SWD ([1]; test compound 20 mg/kg i.p.) | cumulated duration of SWD, total effect for 1 hour after administration ([1]; test compound 30 mg/kg i.p.) | number of occurrences of SWD, total effect for 1 hour after administration ([1]; test compound 30 mg/kg i.p.) | cumulated duration of SWD ([1]; test compound 30 mg/kg i.p.) | number of occurrences of SWD ([1]; test compound 30 mg/kg i.p.) |
| --- | --- | --- | --- | --- | --- | --- | --- | --- | --- | --- | --- | --- | --- |
| CCC1(C)CC(=O)NC1=O (stereo not shown) [ethosuximide] | inhibited | – | – | – | – | – | – | – | – | – | – | – | – |
| NC(=O)O[C@@H](Cn1ncnn1)c1ccccc1Cl [test compound, Carbamic acid (R)-1-(2-chlorophenyl)-2-tetrazol-2-yl-ethyl ester] | – | longer duration than valproate | longer duration than valproate | significant reduction effect in the 30-50 min and 50-70 min intervals after administration | significance in the 30 to 50 min interval after administration | significantly reduced the cumulated duration of SWD compared to the vehicle administration group | significantly reduced the number of occurrences of SWD compared to the vehicle administration group | significant reduction effect in the 30-90 min interval after administration | significance in the 30 to 90 min interval after administration | significantly reduced the cumulated duration of SWD compared to the vehicle administration group | significantly reduced the number of occurrences of SWD compared to the vehicle administration group | significant reduction effect in the entire period after administration | significance in the entire period after administration |
